Test results reported in patent publication US8652997B2, “Active compound combinations” (Bayer CropScience AG, priority 2009, dated 2014).
Like-named read-outs stand apart in the source and are kept apart here.

Assays:
Format in all cases: in vivo
[1] = system: Septoria tritici; test: Septoria tritici-test (wheat)/preventive; settings: preventive spray, evaluated 21 days after inoculation
Protocol: Septoria tritici-Test (Wheat)/Preventive
(§1) Solvent: 49 parts by weight of n,n-dimethylacetamid
(§2) Emulsifier: 1 part by weight of alkylaryl polyglycol ether
(§3) To produce a suitable preparation of active compound, 1 part by weight of active compound or active compound combination is mixed with the stated amounts of solvent and emulsifier, and the concentrate is diluted with water to the desired concentration.
(§4) To test for preventive activity, young plants are sprayed with the preparation of active compound or active compound combination at the stated rate of application.
After the spray coating has been dried, the plants are sprayed with a spore suspension of Septoria tritici. The plants remain for 48 hours in an incubation cabinet at approximately 20° C. and a relative atmospheric humidity of approximately 100% and afterwards for 60 hours at approximately 15° C. in a translucent incubation cabinet at a relative atmospheric humidity of approximately 100%.
The plants are placed in the greenhouse at a temperature of approximately 15° C. and a relative atmospheric humidity of approximately 80%.
The test is evaluated 21 days after the inoculation. 0% means an efficacy which corresponds to that of the control, while an efficacy of 100% means that no disease is observed.

[2] = system: larvae of the diamondback moth (Plutella xylostella); test: Plutella xylostella test (sprayed cabbage leaves)
Protocol: (§5) Solvent: 7 parts by weight of dimethylformamide
(§6) Emulsifier: 2 parts by weight of alkylaryl polyglycolether
(§7) To produce a suitable preparation of active compound, 1 part by weight of active compound is mixed with the stated amount of solvent and emulsifier, and the concentrate is diluted with emulsifier-containing water to the desired concentration.
Cabbage leaves (Brassica oleracea) are treated by being sprayed into the preparation of the active compound of the desired concentration and are infested with larvae of the diamondback moth (Plutella xylostella) as long as the leaves are still moist.
After the specified period of time, the mortality in % is determined. 100% means that all the caterpillars have been killed; 0% means that none of the caterpillars have been killed.

[3] = system: Fusarium nivale (var. majus); test: Fusarium nivale (var. majus)-test (wheat)/preventive; settings: preventive spray, evaluated 5 days after inoculation
Protocol: Fusarium nivale (Var. majus)-Test (Wheat)/Preventive
as §1, §2, §3, §4
After the spray coating has been dried, the plants are slightly injured by using a sandblast and afterwards they are sprayed with a conidia suspension of Fusarium nivale (var. majus).
The plants are placed in the greenhouse under a translucent incubation cabinet at a temperature of approximately 10° C. and a relative atmospheric humidity of approximately 100%.
The test is evaluated 5 days after the inoculation. 0% means an efficacy which corresponds to that of the control, while an efficacy of 100% means that no disease is observed.

[4] = system: two spotted spidermites (Tetranychus urticae); test: Tetranychus urticae test (sprayed French bean leaves)
Protocol: as §5, §6, §7
French bean leaves (Phaseolus vulgaris) which are heavily infested with all stages of the two spotted spidermites (Tetranychus urticae) are treated by being sprayed into the preparation of the active compound of the desired concentration.
After the specified period of time, the mortality in % is determined. 100% means that all the spider mites have been killed; 0% means that none of the spider mites have been killed.

[5] = 48 h, read-out: Mortality in % after 2d
[6] = 96 h, read-out: Mortality in % after 4d
[7] = 48 h, after 2 d, read-out: Mortality in % after 2d
[8] = 96 h, after 4 d, read-out: Mortality in % after 4d

O=[N+]([O-])/N=C1\NCCN1Cc1ccc(Cl)nc1 [Imidacloprid, imidacloprid]
Efficacy in % found ([1]; 500 g/ha): 22%
Efficacy in % found ([1]; 1000 g/ha): 22%
mortality at 20 ppm [2, 5]: 0%
mortality at 100 ppm [2, 5]: 20%

CCC(C)(C)C(=O)OC1=C(c2ccc(Cl)cc2Cl)C(=O)OC12CCCCC2 [Spirodiclofen, spirodiclofen]
Efficacy in % found ([3]; 250 g/ha): 13%
Efficacy in % found ([1]; 250 g/ha): 22%
mortality at 20 ppm [2, 6]: 15%
mortality at 20 ppm [4, 5]: 30%

N#Cc1ccccc1NC(=O)c1snc(Cl)c1Cl [Isotianil, 3,4-dichloro-N-(2-cyanophenyl)-5-isothiazolecarboxamide]
Efficacy in % found ([3]; 1000 g/ha): 25%
Efficacy in % found ([1]; 500 g/ha): 33%
Efficacy in % found ([1]; 1000 g/ha): 33%
mortality at 200 ppm [2, 7]: 5%
mortality at 200 ppm [2, 8]: 5%
mortality at 200 ppm [4, 7]: 0%
mortality at 200 ppm [4, 8]: 0%

Cc1cc(C)c(C2=C(OC(=O)CC(C)(C)C)C3(CCCC3)OC2=O)c(C)c1 [Spiromesifen, spiromesifen]
Efficacy in % found ([3]; 250 g/ha): 38%
mortality at 500 ppm [2, 6]: 25%
mortality at 100 ppm [4, 6]: 75%

CCOC(=O)OC1=C(c2cc(C)ccc2C)C(=O)N[C@]12CC[C@@H](OC)CC2 [Spirotetramat, spirotetramat]
Efficacy in % found ([1]; 250 g/ha): 22%
mortality at 20 ppm [2, 5]: 20%
mortality at 20 ppm [4, 6]: 55%
